The values below come from patent US6372209B1, “Vaginal lactobacillus medicant” (Gyne Logix, Inc., priority 1997, dated 2002).

A short description of the data set: Purity and genetic fingerprint (Rep PCR) of suppository lots. On the procedure: (1.1) Purity of the strain: The purity of the suppository strain (i.e., lack of presence of contaminating organisms in a culture) was confirmed by specifically distinguishing the suppository strain from other strains using DNA fingerprinting techniques. DNA fingerprinting was performed by Repetitive Sequence Polymerase Chain Reaction (Rep PCR). In order to determine whether the Rep PCR method could distinguish the suppository strain (CTV-05) from endogenous L. crispatus, 40 strains of L. crispatus were recovered from the vagina of women of child-bearing age and compared to CTV-05. L. crispatus species identity was determined using whole chromosomal DNA homology to control strain L. crispatus ATCC 33197. […] The suppository strain (CTV-05) was distinguished from the others by four bands in the 2500-1500 base pair region. In this region, the CTV-05 fingerprint consists of intense bands at 2500 and 1500 and less amplified bands at 2000 and 1736 base pairs (data not shown).
Six different lots of L. crispatus CTV-05 prepared over a 2 year period were evaluated for purity and stability of the genetic fingerprint. […] Further, there has been no lot-to-lot variability in the “fingerprint” of the DNA of the suppository strain (data not shown).

Consider Lactobacillus crispatus CTV-05, for which, for the setting “six lots prepared over a 2 year period, enriched chopped meat broth, anaerobic”, the contaminants in lots entry was “free of contaminants”. Further, where the note is “small scale and scale-up lots”, the “genetic fingerprint (Rep PCR) between lots” value is “identical fingerprints”.
